According to patent US20120015029A1, “DIRECT COMPRESSION FORMULATION AND PROCESS” (priority 2005, published 2012):

Tests used:
[1] = Water sorption/desorption isotherm (dynamic vapor sorption, DVS-1); settings: 25° C., 85% RH
[2] = Pharmacokinetic drug-drug interaction study vildagliptin 100 mg qd and metformin 1000 mg qd in patients with type 2 diabetes; type: in vivo, human; settings: type 2 diabetes patients, steady state, vildagliptin 100 mg qd FMI tablets alone or with metformin 1000 mg qd, 5 days
Description: Subjects are given an end-of-study evaluation on the last day of period 2 (Day 20). For all treatment periods, subjects fasted for a minimum of 10 hours pre-dose to 4 hours post-dose. Subjects are considered to have completed the study when all safety and pharmacokinetic evaluations have been completed.
The pharmacokinetic profiles are illustrated in FIG. 5.

SMILES	hygroscopicity [1]	moisture gain [1]	Tmax median [2]
N#C[C@@H]1CCCN1C(=O)CNC12CC3CC(CC(O)(C3)C1)C2 [vildagliptin amorphous form, (S)-1-[(3-hydroxy-1-adamantyl)amino]acetyl-2-cyano-pyrrolidine]	hygroscopic	4.2%	–
N#C[C@@H]1CCCN1C(=O)CNC12CC3CC(CC(O)(C3)C1)C2 [vildagliptin, (S)-1-[(3-hydroxy-1-adamantyl)amino]acetyl-2-cyano-pyrrolidine]	–	–	1.00 h
N#C[C@@H]1CCCN1C(=O)CNC12CC3CC(CC(O)(C3)C1)C2 [Crystalline vildagliptin Form A, (S)-1-[(3-hydroxy-1-adamantyl)amino]acetyl-2-cyano-pyrrolidine]	only very slightly hygroscopic	0.9%	–
